Reference: patent US20260022143A1, “Cyclic Peptide Inhibitors of IL-23” (JANSSEN PHARMACEUTICA NV, priority 2022, published 2026)
Starred links: 1 amine or outer side, 2 acyl side, 3 side chain; linkers in the order of their positions; H or OH if unused. Positions of bridges follow the written chain, without caps; N, C: chain ends. Non-standard residues stand in square brackets, D forms with d. Residues, ends and D or L forms follow the SMILES beside them. *: point of attachment. Me3N+CH2CH2(OCH2CH2)4CO = C[N+](C)(C)CCOCCOCCOCCOCCC(=O)*; Me3N+(CH2)2O(CH2)2O(CH2)2CO = C[N+](C)(C)CCOCCOCCC(=O)*; Trp(7-Me) = Cc1cccc2c(C[C@H](N)C(=O)O)c[nH]c12; Decanoyl(3,6,9-trioxa) = COCCOCCOCC(=O)*; X1 = CN(CC[C@H](N[*:1])C(=O)[*:2])[*:3]; 2Nal = N[C@@H](Cc1ccc2ccccc2c1)C(=O)O; AEF = NCCOc1ccc(C[C@H](N)C(=O)O)cc1; X24 = C[N+](C)(CCN[*:1])CC(=O)[*:2]; 3Pal = N[C@@H](Cc1cccnc1)C(=O)O; N(CH2CH2)2CF2 = FC1(F)CCN(*)CC1; Lys(Me) = CNCCCC[C@H](N)C(=O)O; X7 = COCCOCCOCCOCCOCCOCCC(=O)*; Pen = CC(C)(S)[C@H](N)C(=O)O; X55 = OC1(C(F)(F)F)CCN(*)CC1; Thp = NC1(C(=O)O)CCOCC1; Aib = CC(C)(N)C(=O)O; Sar = CNCC(=O)O

Legend:
[1] = Exposed Polar Surface Area (EPSA); type: physicochemical; conditions: SFC on Chirex 3014 column; sample 1 mM DMSO stock; read-out: EPSA
Outline: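 Chirex 3014 column, 35 °C, 4 mL/min; CO2/MeOH + 20 mM NH4 formate, 5→60% modifier at 20%/min. UV/MS detection. EPSA (Å^2) from retention time vs 8-standard calibration line; duplicates; 1 mM DMSO stock injected undiluted.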

[2] = biological target: T1, IL-23R (Homo sapiens, UniProt Q5VWK5); test: IL23R Reporter Assay; type: cell-based; conditions: HEK293 cells containing IL-23R, IL-12RP1 and STAT-inducible firefly luciferase reporter; 10 ng/mL IL-23 (EC90); 5 h at 37° C.; read-out: IL23R Reporter Assay
T1 construct: host or cells: HEK293
T1 sequence (Q5VWK5 24-629): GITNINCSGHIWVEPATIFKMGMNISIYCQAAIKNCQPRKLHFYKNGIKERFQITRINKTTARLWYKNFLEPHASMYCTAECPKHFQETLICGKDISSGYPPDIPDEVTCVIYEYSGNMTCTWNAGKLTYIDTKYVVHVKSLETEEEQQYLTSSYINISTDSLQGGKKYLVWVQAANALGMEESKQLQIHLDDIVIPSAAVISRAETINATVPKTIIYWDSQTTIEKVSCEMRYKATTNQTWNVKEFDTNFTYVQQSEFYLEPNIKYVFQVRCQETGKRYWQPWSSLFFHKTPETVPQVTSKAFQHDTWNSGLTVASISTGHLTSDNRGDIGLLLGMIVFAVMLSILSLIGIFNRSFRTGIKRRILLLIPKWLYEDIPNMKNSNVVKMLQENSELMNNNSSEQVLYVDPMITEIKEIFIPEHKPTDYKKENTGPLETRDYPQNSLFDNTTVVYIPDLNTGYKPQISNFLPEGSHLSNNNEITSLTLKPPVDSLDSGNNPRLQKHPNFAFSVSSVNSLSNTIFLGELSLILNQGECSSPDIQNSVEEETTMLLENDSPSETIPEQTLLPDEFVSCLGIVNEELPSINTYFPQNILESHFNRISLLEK

Structure (SMILES) | EPSA [1] [A^2] | IC50 [2] [nM]
COCCOCCOCCOCCOCCOCCC(=O)N(C)CC[C@@H]1NC(=O)[C@H](Cc2c[nH]c3c(C)cccc23)NC(=O)[C@H]([C@@H](C)O)NC(=O)[C@H](CC(=O)N(C)C)NC(=O)[C@@H](NC(C)=O)C(C)(C)SSC(C)(C)[C@@H](C(=O)N[C@@H](Cc2ccc(OCCN)cc2)C(=O)N[C@@H](Cc2ccc3ccccc3c2)C(=O)NC2(C(=O)N[C@@H](CCN(C)C(=O)CCOCCOCCOCCOCCOCCOC)C(=O)N[C@@H](CC(N)=O)C(=O)N[C@@H](Cc3cccnc3)C(=O)N(C)CC(=O)N(C)C)CCOCC2)NC1=O [compound 141, MeCO-Pen(3)-N(N(Me)2)-T-7MeW-Dab(NMeCOmPEG6)-Pen(3)-AEF-2Nal-THP-Dab(NMeCOmPEG6)-N-3Pya-Sar-CON(Me)2] (Ac-[Pen]D(NMe2)T[Trp(7-Me)][X1](X7)[Pen][AEF][2Nal][Thp][X1](X7)N[3Pal][Sar]-NMe2; disulfide 1-6) | 140 | 5.7
Cc1cccc2c(C[C@@H]3NC(=O)[C@H]([C@@H](C)O)NC(=O)[C@H](CC(=O)N(C)C)NC(=O)[C@@H](NC(=O)CCOCCOCC[N+](C)(C)C)C(C)(C)SSC(C)(C)[C@@H](C(=O)N[C@@H](Cc4ccc(OCCN)cc4)C(=O)N[C@@H](Cc4ccc5ccccc5c4)C(=O)NC4(C(=O)NC(C)(C)C(=O)N[C@@H](CC(N)=O)C(=O)N[C@@H](Cc5cccnc5)C(=O)N(C)CC(=O)N(C)C)CCOCC4)NC(=O)C(C)(C)NC3=O)c[nH]c12 [compound 142, cPEG3aCO-Pen(3)-N(N(Me)2)-T-7MeW-AIB-Pen(3)-AEF-2Nal-THP-AIB-N-3Pya-Sar-CON(Me)2] ({Me3N+(CH2)2O(CH2)2O(CH2)2CO}-[Pen]D(NMe2)T[Trp(7-Me)][Aib][Pen][AEF][2Nal][Thp][Aib]N[3Pal][Sar]-NMe2; disulfide 1-6) | 166 | 6.6
COCCOCCOCCOCCOCCOCCC(=O)NCC[N+](C)(C)CC(=O)N[C@@H]1C(=O)N[C@@H](CC(=O)N(C)C)C(=O)N[C@@H]([C@@H](C)O)C(=O)N[C@@H](Cc2c[nH]c3c(C)cccc23)C(=O)N[C@@H](CCN(C)C(=O)CCOCCOCCOCCOCC[N+](C)(C)C)C(=O)N[C@H](C(=O)N[C@@H](Cc2ccc(OCCN)cc2)C(=O)N[C@@H](Cc2ccc3ccccc3c2)C(=O)NC2(C(=O)N[C@@H](CCC(=O)O)C(=O)N[C@@H](CC(N)=O)C(=O)N[C@@H](Cc3cccnc3)C(=O)N(C)CC(=O)N(C)C)CCOCC2)C(C)(C)SSC1(C)C [compound 143, mPEG6CO-SP6-Pen(3)-N(N(Me)2)-T-7MeW-Dab(NMecPEG5a)-Pen(3)-AEF-2Nal-THP-E-N-3Pya-Sar-CON(Me)2] (X7-[X24][Pen]D(NMe2)T[Trp(7-Me)][X1](Me3N+CH2CH2(OCH2CH2)4CO)[Pen][AEF][2Nal][Thp]EN[3Pal][Sar]-NMe2; disulfide 2-7 (inferred)) | 161 | 6.5
COCCOCCOCC(=O)NCC[N+](C)(C)CC(=O)N[C@@H]1C(=O)N[C@@H](CC(=O)N(C)C)C(=O)N[C@@H]([C@@H](C)O)C(=O)N[C@@H](Cc2c[nH]c3c(C)cccc23)C(=O)N[C@@H](CCC(=O)N(C)C)C(=O)N[C@H](C(=O)N[C@@H](Cc2ccc(OCCN)cc2)C(=O)N[C@@H](Cc2ccc3ccccc3c2)C(=O)NC2(C(=O)N[C@@H](CCC(=O)N(C)C)C(=O)N[C@@H](CC(N)=O)C(=O)N[C@@H](Cc3cccnc3)C(=O)N(C)CC(N)=O)CCOCC2)C(C)(C)SSC1(C)C [compound 146, mPEG3CO-SP6-Pen(3)-N(N(Me)2)-T-7MeW-Q(N(Me)2)-Pen(3)-AEF-2Nal-THP-Q(N(Me)2)-N-3Pya-Sar-CONH2] ({Decanoyl(3,6,9-trioxa)}-[X24][Pen]D(NMe2)T[Trp(7-Me)]E(NMe2)[Pen][AEF][2Nal][Thp]E(NMe2)N[3Pal][Sar]-NH2; disulfide 2-7) | 152 | 3.8
Cc1cccc2c(C[C@@H]3NC(=O)[C@H]([C@@H](C)O)NC(=O)[C@H](CC(=O)N(C)C)NC(=O)[C@@H](NC(=O)CCOCCOCC[N+](C)(C)C)C(C)(C)SSC(C)(C)[C@@H](C(=O)N[C@@H](Cc4ccc(OCCN)cc4)C(=O)N[C@@H](Cc4ccc5ccccc5c4)C(=O)NC4(C(=O)N[C@@H](CCC(=O)N(C)C)C(=O)N[C@@H](CC(N)=O)C(=O)N[C@@H](Cc5cccnc5)C(=O)N(C)CC(N)=O)CCOCC4)NC(=O)[C@H](CCC(=O)N(C)C)NC3=O)c[nH]c12 [compound 147, cPEG3aCO-Pen(3)-N(N(Me)2)-T-7MeW-Q(N(Me)2)-Pen(3)-AEF-2Nal-THP-Q(N(Me)2)-N-3Pya-Sar-CONH2] ({Me3N+(CH2)2O(CH2)2O(CH2)2CO}-[Pen]D(NMe2)T[Trp(7-Me)]E(NMe2)[Pen][AEF][2Nal][Thp]E(NMe2)N[3Pal][Sar]-NH2; disulfide 1-6) | 156 | 3.8

Further compounds by falling IC50 [2], results first:

EPSA [1] [A^2] | IC50 [2] [nM] | Structure (SMILES)
171 | 3.7 | CC(=O)NCCCC[C@@H]1NC(=O)[C@H](Cc2c[nH]c3c(C)cccc23)NC(=O)[C@H]([C@@H](C)O)NC(=O)[C@H](CC(N)=O)NC(=O)[C@@H](NC(C)=O)C(C)(C)SSC(C)(C)[C@@H](C(=O)N[C@@H](Cc2ccc(OCCN)cc2)C(=O)N[C@@H](Cc2ccc3ccccc3c2)C(=O)NC2(C(=O)N[C@@H](CCC(=O)O)C(=O)N[C@@H](CC(N)=O)C(=O)N[C@@H](Cc3cccnc3)C(=O)N(C)CC(=O)N3CCC(O)(C(F)(F)F)CC3)CCOCC2)NC1=O [compound 135] (Ac-[Pen]NT[Trp(7-Me)]K(Ac)[Pen][AEF][2Nal][Thp]EN[3Pal][Sar]-X55; disulfide 1-6 (inferred))
150 | 3.4 | Cc1cccc2c(C[C@@H]3NC(=O)[C@H]([C@@H](C)O)NC(=O)[C@H](CC(=O)N(C)C)NC(=O)[C@@H](NC(=O)CCOCCOCC[N+](C)(C)C)C(C)(C)SSC(C)(C)[C@@H](C(=O)N[C@@H](Cc4ccc(OCCN)cc4)C(=O)N[C@@H](Cc4ccc5ccccc5c4)C(=O)NC4(C(=O)N[C@@H](CCC(=O)N(C)C)C(=O)N[C@@H](CC(N)=O)C(=O)N[C@@H](Cc5cccnc5)C(=O)N(C)CC(=O)N(C)C)CCOCC4)NC(=O)[C@H](CCC(=O)N(C)C)NC3=O)c[nH]c12 [compound 139, cPEG3aCO-Pen(3)-N(N(Me)2)-T-7MeW-Q(N(Me)2)-Pen(3)-AEF-2Nal-THP-Q(N(Me)2)-N-3Pya-Sar-CON(Me)2] ({Me3N+(CH2)2O(CH2)2O(CH2)2CO}-[Pen]D(NMe2)T[Trp(7-Me)]E(NMe2)[Pen][AEF][2Nal][Thp]E(NMe2)N[3Pal][Sar]-NMe2; disulfide 1-6)
169 | 2.6 | CC(=O)NCCCC[C@@H]1NC(=O)[C@H](Cc2c[nH]c3c(C)cccc23)NC(=O)[C@H]([C@@H](C)O)NC(=O)[C@H](CC(N)=O)NC(=O)[C@@H](NC(C)=O)C(C)(C)SSC(C)(C)[C@@H](C(=O)N[C@@H](Cc2ccc(OCCN)cc2)C(=O)N[C@@H](Cc2ccc3ccccc3c2)C(=O)NC2(C(=O)N[C@@H](CCC(=O)O)C(=O)N[C@@H](CC(N)=O)C(=O)N[C@@H](Cc3cccnc3)C(=O)N(C)CC(=O)N3CCC(F)(F)CC3)CCOCC2)NC1=O [compound 136] (Ac-[Pen]NT[Trp(7-Me)]K(Ac)[Pen][AEF][2Nal][Thp]EN[3Pal][Sar]-{N(CH2CH2)2CF2}; disulfide 1-6 (inferred))
153 | 2.6 | COCCOCCOCC(=O)NCC[N+](C)(C)CC(=O)N[C@@H]1C(=O)N[C@@H](CC(=O)N(C)C)C(=O)N[C@@H]([C@@H](C)O)C(=O)N[C@@H](Cc2c[nH]c3c(C)cccc23)C(=O)N[C@@H](CCCCN(C)C(C)=O)C(=O)N[C@H](C(=O)N[C@@H](Cc2ccc(OCCN)cc2)C(=O)N[C@@H](Cc2ccc3ccccc3c2)C(=O)NC2(C(=O)N[C@@H](CCCCNC(C)=O)C(=O)N[C@@H](CC(N)=O)C(=O)N[C@@H](Cc3cccnc3)C(=O)N(C)CC(N)=O)CCOCC2)C(C)(C)SSC1(C)C [compound 148, mPEG3CO-SP6-Pen(3)-N(N(Me)2)-T-7MeW-K(NMeAc)-Pen(3)-AEF-2Nal-THP-K(Ac)-N-3Pya-Sar-CONH2] ({Decanoyl(3,6,9-trioxa)}-[X24][Pen]D(NMe2)T[Trp(7-Me)][Lys(Me)](Ac)[Pen][AEF][2Nal][Thp]K(Ac)N[3Pal][Sar]-NH2; disulfide 2-7)
157 | 2.1 | CC(=O)NCCCC[C@H](NC(=O)C1(NC(=O)[C@H](Cc2ccc3ccccc3c2)NC(=O)[C@H](Cc2ccc(OCCN)cc2)NC(=O)[C@H]2NC(=O)[C@H](CCCCN(C)C(C)=O)NC(=O)[C@H](Cc3c[nH]c4c(C)cccc34)NC(=O)[C@H]([C@@H](C)O)NC(=O)[C@H](CC(=O)N(C)C)NC(=O)[C@@H](NC(=O)CCOCCOCC[N+](C)(C)C)C(C)(C)SSC2(C)C)CCOCC1)C(=O)N[C@@H](CC(N)=O)C(=O)N[C@@H](Cc1cccnc1)C(=O)N(C)CC(N)=O [compound 149, cPEG3aCO-Pen(3)-N(N(Me)2)-T-7MeW-K(NMeAc)-Pen(3)-AEF-2Nal-THP-K(Ac)-N-3Pya-Sar-CONH2] ({Me3N+(CH2)2O(CH2)2O(CH2)2CO}-[Pen]D(NMe2)T[Trp(7-Me)][Lys(Me)](Ac)[Pen][AEF][2Nal][Thp]K(Ac)N[3Pal][Sar]-NH2; disulfide 1-6)
